Data on 23 molecules can be found in patent EP4206196A1, “PYRIMIDINE SUBSTITUTED DERIVATIVES AS TYK2 INHIBITORS” (Almirall S.A., priority 2021, dated 2023).

Test [1] addresses T1, TYK2 (JH2domain-pseudokinase) (Homo sapiens, UniProt P29597).
T1 construct: TYK2 (JH2domain-pseudokinase)-tagged T7 phage strains were prepared in an E. coli host derived from the BL21 strain; made in house; host or cells: E. coli BL21-derived host (T7 phage) or HEK-293 cells
The experiment in a line: TYK2 JH2 domain binding assay (KINOMEscan). The essentials: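 Kd values come from nonlinear least-squares fits of 11-point 3-fold dilutions (mostly 30,000 nM top, lowered when Kd fell below 0.5 nM). Test compound competed with bead-bound biotinylated ligand for qPCR-tagged TYK2 pseudokinase (JH2) domain, shaken 1 h at room temperature, with about 1% final DMSO.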

In test [2] the test system is STAT6 through JAK1/JAK3. The experiment in a line: IL4 induced STAT phosphorylation in Ramos cells (STAT6-bla reporter gene). It counts as cell-based. The conditions noted are these: Homo sapiens, Ramos, compound concentration 5 µM. The protocol: Stimulation of RAMOS cells with interleukine IL-4 activates the signaling pathway of STAT6 through JAK1/JAK3. In this assay, measurement of the activity of the reporter gene β-lactamase expression was used as the readout.
Ramos STAT6-bla RA-1 cell line were purchased from Life Technologies (ref. #K1243) and cultured as specified by the provider. A number of 30.000 cells per well (35 µl) were plated in a 384-well plate (Corning ref.# 3712) and cultured overnight at 37°C with 5% CO2 in a complete Optimem media (Life Technologies ref. #11058-021) containing 556 µg/mL CD40 (Life Technologies ref. #PHP0025), 0.5% (v/v) heat inactivated FBS (Life Technologies ref. #10082-147), 10 µM non-essential aminoacids NEAA (Sigma ref. #M7145), 100 µM Sodium Pyruvate (Gibco ref. #11360-039) and 100 U/mL Penicillin (Sigma ref. #P0781). Compounds were initially dissolved in 100% DMSO. Compound curves were then prepared using a 1/5 serial dilution (10 dilutions). The dilutions were directly diluted in complete Optimem media without CD40 at 40-fold their final concentration in 20% DMSO. IL-4 initial solution (Prepotech ref. #200-04) was prepared at 10-fold its EC80 in complete Optimem media without CD40. Compounds and IL-4 were added simultaneously to the wells with cells and incubated during 4 hours at 37°C (the final DMSO was 0.1%). The β-lactamase substrate (LifeTechnologies ref.#K1138) was prepared at 6-fold its final concentration as specified by the provider. Then 10 µL of the mixture was added to the wells to stop the stimulation. Plate was left in the dark over-night. Then a FRET reading was performed on an appropriate plate reader.
All experiments were analysed using an ExcelFit template and the four-parameter log equation. As % vs compound concentration. TABLE 3: Inhibition of IL4 induced STAT phosphorylation in Ramos cells.

Test [3] deals with STAT1/3 through TYK2/JAK1. Briefly: IFNa induced STAT phosphorylation in HEK293 cells (SIE-bla reporter gene). It counts as cell-based. Particulars: HEK293T-sie-bla cells, IFNa at EC80, 4 hours, read-out: Inhibition of IFNa induced STAT phosphorylation HEK293 cells IC50. The method, boiled down:
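Read-out was FRET from a β-lactamase reporter under a SIE promoter in HEK293T cells, with substrate added after a 4 h, 37°C co-incubation of compound and EC80 IFNa and left overnight in the dark. Compounds ran as 10-point 1/5 dilutions at 0.1% final DMSO; four-parameter log fit gave IC50.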

Read-outs that look alike come from different tables or passages of the source.

T1 sequence (P29597 589-875 limits assumed): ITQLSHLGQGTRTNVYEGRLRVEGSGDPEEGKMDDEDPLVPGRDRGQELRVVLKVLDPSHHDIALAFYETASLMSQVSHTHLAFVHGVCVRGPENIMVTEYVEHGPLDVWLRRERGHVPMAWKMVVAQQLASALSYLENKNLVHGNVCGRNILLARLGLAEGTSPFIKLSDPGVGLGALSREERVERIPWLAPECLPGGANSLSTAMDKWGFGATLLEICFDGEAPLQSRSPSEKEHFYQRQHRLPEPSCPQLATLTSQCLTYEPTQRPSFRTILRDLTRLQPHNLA

What is called Kd is the constant that tells how readily two partners part at equilibrium. Low readings indicate tighter binding, high ones weaker binding. For orientation: inhibition means the change of the read-out against control, counted positive when it falls. As usually defined, the IC50 is the concentration that inhibits the measured activity by half. Consider `COc1c(Nc2cc(NC(=O)C3CC3)ncn2)cccc1-c1ncn(C)n1` [Example 1, N-[6-[2-methoxy-3-(1-methyl-1,2,4-triazol-3-yl)anilino]pyrimidin-4-yl]cyclopropanecarboxamide], for which the Kd in test [1] was 1 to 10 nM. Further, the inhibition at 5 µM in test [2] was 25%. The IC50 in test [3] (Homo sapiens, HEK293) was 100 to 1000 nM.
The molecule `COc1c(Nc2cc(Nc3cc(C)nc(C)n3)ncn2)cccc1-c1ncn(C)n1` [Example 4, N6-(2,6-dimethylpyrimidin-4-yl)-N4-[2-methoxy-3-(1-methyl-1,2,4-triazol-3-yl)phenyl]pyrimidine-4,6-diamine] displayed a Kd in test [1] of 0.2 to 1 nM. The molecule further yielded an inhibition at 5 µM in test [2] of 33%. The IC50 in test [3] (Homo sapiens, HEK293) was 10 to 100 nM.
`COc1c(C)cccc1Nc1cc(Nc2cc(C)nc(C)n2)ncn1` [Example 6, N6-(2,6-dimethylpyrimidin-4-yl)-N4-(2-methoxy-3-methyl-phenyl)pyrimidine-4,6-diamine] showed a Kd in test [1] of 0.2 to 1 nM. This molecule also registered an inhibition at 5 µM in test [2] of 62%. In addition, in test [3] (Homo sapiens, HEK293), the concentration for half-maximal inhibition (IC50) was 10 to 100 nM.
Regarding `Cc1cc(Nc2cc(Nc3ccccc3N(C)S(C)(=O)=O)ncn2)nc(C)n1` [Example 12, N-[2-[[6-[(2,6-dimethylpyrimidin-4-yl)amino]pyrimidin-4-yl]amino]phenyl]-N-methyl-methanesulfonamide], the Kd in test [1] was < 0.2 nM. Also, the inhibition at 5 µM in test [2] came to 46%. For the same molecule, in test [3] (Homo sapiens, HEK293), the concentration for half-maximal inhibition (IC50) was > 1000 nM.
For `Cc1cc(Nc2cc(Nc3ccc(-c4cnn(C)c4C)cc3N(C)S(C)(=O)=O)ncn2)nc(C)n1` [Example 25, N-[5-(1,5-dimethylpyrazol-4-yl)-2-[[6-[(2,6-dimethylpyrimidin-4-yl)amino]pyrimidin-4-yl]amino]phenyl]-N-methyl-methanesulfonamide] the same measures were < 0.2 nM, 57% and < 10 nM.
Regarding `COc1c(-c2noc(C)n2)ccnc1Nc1cc(Nc2cc(C)nc(C)n2)ncn1` [Example 159, 4-N-(2,6-dimethylpyrimidin-4-yl)-6-N-[3-methoxy-4-(5-methyl-1,2,4-oxadiazol-3-yl)pyridin-2-yl]pyrimidine-4,6-diamine], in test [1], the equilibrium dissociation constant (Kd) is < 0.2 nM. The half-inhibitory concentration (IC50) in test [3] (Homo sapiens, HEK293) is < 10 nM.
Regarding `Cc1c(-c2cnc(Nc3cc(NC(=O)[C@H]4C[C@H]4F)ncn3)c(N(C)S(C)(=O)=O)c2)cnn1C` [Example 160, (1R,2R)-N-[6-[[5-(1,5-dimethylpyrazol-4-yl)-3-[methyl(methylsulfonyl)amino]-2-pyridyl]amino]pyrimidin-4-yl]-2-fluoro-cyclopropanecarboxamide], the dissociation constant Kd in test [1] is < 0.2 nM. Further, the half-inhibitory concentration (IC50) in test [3] (Homo sapiens, HEK293) fell in the range of 10 to 100 nM.
Regarding `Cc1c(-c2cnc(Nc3cc(NC(=O)C4CC4)ncn3)c(P(C)(C)=O)c2)cnn1C` [Example 161, N-[6-[[3-dimethylphosphoryl-5-(1,5-dimethylpyrazol-4-yl)-2-pyridyl]amino]pyrimidin-4-yl]cyclopropanecarboxamide], in test [1], the Kd was < 0.2 nM. In test [3] (Homo sapiens, HEK293), the half-maximal inhibitory concentration (IC50) was 10 to 100 nM.
`Cc1cc(Nc2cc(Nc3nc(C)c(-c4cnn(C)c4)cc3N(C)S(C)(=O)=O)ncn2)ncn1` [Example 162, N-methyl-N-[6-methyl-5-(1-methylpyrazol-4-yl)-2-[[6-[(6-methylpyrimidin-4-yl)amino]pyrimidin-4-yl]amino]-3-pyridyl]methanesulfonamide]: the dissociation constant (Kd) in test [1] was < 0.2 nM. Also, the half-inhibitory concentration (IC50) in test [3] (Homo sapiens, HEK293) is < 10 nM.
In the same order, the values of `Cc1cc(Nc2cc(Nc3nc(C)c(-c4cnn(C)c4C)cc3N(C)S(C)(=O)=O)ncn2)ncn1` [Example 163, N-[5-(1,5-dimethylpyrazol-4-yl)-6-methyl-2-[[6-[(6-methylpyrimidin-4-yl)amino]pyrimidin-4-yl]amino]-3-pyridyl]-N-methyl-methanesulfonamide] are < 0.2 nM and < 10 nM.
`CN=S(C)(=O)c1cccnc1Nc1cc(Nc2cc(C)nc(C)n2)ncn1` (stereo not drawn) [Example 164, N4-(2,6-dimethylpyrimidin-4-yl)-N6-[3-(N,S-dimethylsulfonimidoyl)-2-pyridyl]pyrimidine-4,6-diamine]: the Kd in test [1] was < 0.2 nM. For the same molecule, the IC50 in test [3] (Homo sapiens, HEK293) is 10 to 100 nM.
With `COc1cc(-c2cnn(C)c2)c(C)nc1Nc1cc(Nc2cc(C)ncn2)ncn1` [Example 165, N4-[3-methoxy-6-methyl-5-(1-methylpyrazol-4-yl)-2-pyridyl]-N6-(6-methylpyrimidin-4-yl)pyrimidine-4,6-diamine], the equilibrium dissociation constant (Kd) in test [1] was in the range of 0.2 to 1 nM. The concentration for half-maximal inhibition (IC50) in test [3] (Homo sapiens, HEK293) lay within 100 to 1000 nM.
For `Cc1cc(Nc2cc(Nc3ncc(C4CCCCO4)cc3N(C)S(C)(=O)=O)ncn2)nc(C)n1` (stereo not drawn) [Example 167, N-[2-[[6-[(2,6-dimethylpyrimidin-4-yl)amino]pyrimidin-4-yl]amino]-5-tetrahydropyran-2-yl-3-pyridyl]-N-methyl-methanesulfonamide] the same measures were < 0.2 nM and < 10 nM.
Regarding `CN=S(C)(=O)c1cc(-c2cnn(C)c2C)cnc1Nc1cc(Nc2cc(C)nc(C)n2)ncn1` (stereo not drawn) [Example 168, N6-[5-(1,5-dimethylpyrazol-4-yl)-3-(N,S-dimethylsulfonimidoyl)-2-pyridyl]-N4-(2,6-dimethylpyrimidin-4-yl)pyrimidine-4,6-diamine], the Kd in test [1] was < 0.2 nM. Also, the concentration for half-maximal inhibition (IC50) in test [3] (Homo sapiens, HEK293) is < 10 nM.
Regarding `COCCn1cnc(-c2ccnc(Nc3cc(Nc4cc(C)nc(C)n4)ncn3)c2OC)n1` [Example 169, N6-(2,6-dimethylpyrimidin-4-yl)-N4-[3-methoxy-4-[1-(2-methoxyethyl)-1,2,4-triazol-3-yl]-2-pyridyl]pyrimidine-4,6-diamine], in test [1], the dissociation constant Kd was < 0.2 nM. Also, the IC50 in test [3] (Homo sapiens, HEK293) fell in the range of 10 to 100 nM.
With `Cc1cc(Nc2cc(Nc3ncc(-c4ocnc4C)cc3N(C)S(C)(=O)=O)ncn2)nc(C)n1` [Example 170, N-[2-[[6-[(2,6-dimethylpyrimidin-4-yl)amino]pyrimidin-4-yl]amino]-5-(4-methyl-1,3-oxazol-5-yl)pyridin-3-yl]-N-methylmethanesulfonamide], the Kd in test [1] is < 0.2 nM. Moreover, in test [3] (Homo sapiens, HEK293), the IC50 fell in the range of 10 to 100 nM.
Take `Cc1cc(Nc2cc(Nc3ncc(C4CC4)cc3P(C)(C)=O)ncn2)nc(C)n1` [Example 171, 4-N-(5-cyclopropyl-3-dimethylphosphorylpyridin-2-yl)-6-N-(2,6-dimethylpyrimidin-4-yl)pyrimidine-4,6-diamine]: the dissociation constant (Kd) in test [1] is < 0.2 nM. For the same molecule, the half-maximal inhibitory concentration (IC50) in test [3] (Homo sapiens, HEK293) lay within 10 to 100 nM.
`Cc1cc(Nc2cc(Nc3ncccc3C(C)(C)O)ncn2)nc(C)n1` [Example 172, 2-[2-[[6-[(2,6-dimethylpyrimidin-4-yl)amino]pyrimidin-4-yl]amino]pyridin-3-yl]propan-2-ol]: the equilibrium dissociation constant (Kd) in test [1] was in the range of 0.2 to 1 nM. Further, the concentration for half-maximal inhibition (IC50) in test [3] (Homo sapiens, HEK293) lay within 100 to 1000 nM.
In test [1], `COc1cc(-c2cnn(C)c2C)c(C)nc1Nc1cc(Nc2cc(C)ncn2)ncn1` [Example 176, N6-[5-(1,5-dimethylpyrazol-4-yl)-3-methoxy-6-methyl-2-pyridyl]-N4-(6-methylpyrimidin-4-yl)pyrimidine-4,6-diamine] showed a Kd of 0.2 to 1 nM. Also, in test [3] (Homo sapiens, HEK293), the concentration for half-maximal inhibition (IC50) is 10 to 100 nM.
Take “N4-(2,6-dimethylpyrimidin-4-yl)-N6-(3-methoxy-5-tetrahydropyran-2-yl-2-pyridyl)pyrimidine-4,6-diamine [Example 166]”: in test [1], the dissociation constant (Kd) is 1 to 10 nM. Further, the half-maximal inhibitory concentration (IC50) in test [3] was in the range of 100 to 1000 nM.
Turning to “N4-(2,6-dimethylpyrimidin-4-yl)-N6-[2-ethoxy-3-(1-methyl-1,2,4-triazol-3-yl)phenyl]pyrimidine-4,6-diamine [Example 45]”, the dissociation constant Kd in test [1] is 0.2 to 1 nM. For the same molecule, in test [3], the IC50 lay within 100 to 1000 nM.
For “N4-(2,6-dimethylpyrimidin-4-yl)-N6-[4-(3-methylimidazol-4-yl)-2-methylsulfonyl-phenyl]pyrimidine-4,6-diamine [Example 26]” the same measures were 0.2 to 1 nM and 100 to 1000 nM.
As for “N-[5-(1,5-dimethylpyrazol-4-yl)-2-[[6-[(2,6-dimethylpyrimidin-4-yl)amino]pyrimidin-4-yl]amino]-3-pyridyl]-N-(trideuteriomethyl)methanesulfonamide [Example 133]”, in test [1], the Kd was < 0.2 nM. The IC50 in test [3] was < 10 nM.
